According to ChEMBL document CHEMBL4190260, “Antibiofilm potential of 16-oxo-cleroda-3, 13(14) E-diene-15 oic acid and its five new γ-amino γ-lactone derivatives against methicillin resistant Staphylococcus aureus and Streptococcus mutans” (2017):
Values after ≈ are worked out from the molar mass of the structure shown. Active and inactive are the calls of the source. No cut-off for these calls is given here.

What was measured:
Streptococcus mutans [1] = assay: Antibacterial activity against Streptococcus mutans ATCC 25175 measured after overnight incubation by two-fold serial dilution method; type: functional
Staphylococcus aureus [2] = assay: Antibacterial activity against methicillin-resistant Staphylococcus aureus ATCC 43300 assessed as delay in bacterial growth at 4 times MIC after 10 mins; type: functional, organism-based
Staphylococcus aureus [3] = assay: Bacteriostatic activity against methicillin-resistant Staphylococcus aureus ATCC 43300 assessed as log reduction in colony forming units at 15 to 20 ug/ml after 24 hrs; type: functional, organism-based
Staphylococcus aureus [4] = assay: Antibacterial activity against methicillin-resistant Staphylococcus aureus ATCC 43300 assessed as reduction in acid production at 0.5 times MIC and MIC measured up to 24 hrs; type: functional, organism-based
Streptococcus mutans [5] = assay: Potency index, ratio of cefixime MIC to test compound MIC for Streptococcus mutans ATCC 25175; type: functional
Staphylococcus aureus [6] = assay: Bactericidal activity against methicillin-resistant Staphylococcus aureus ATCC 43300 measured after overnight incubation; type: functional
Staphylococcus aureus [7] = assay: Antibacterial activity against methicillin-resistant Staphylococcus aureus ATCC 43300 measured after overnight incubation by two-fold serial dilution method; type: functional
Streptococcus mutans [8] = assay: Antibiofilm activity against Streptococcus mutans ATCC 25175 assessed as down-regulation of gtfC gene expression by semi-quantitative PCR analysis; type: functional, organism-based
Streptococcus mutans [9] = assay: Antibacterial activity against Streptococcus mutans ATCC 25175 measured assessed as inhibition of colony formation at 5 to 20 ug/ml after 24 hrs; type: functional, organism-based
Streptococcus mutans [10] = assay: Potency index, ratio of 6 amino penicillinic acid MIC to test compound MIC for Streptococcus mutans ATCC 25175; type: functional
Staphylococcus aureus [11] = assay: Potency index, ratio of gentamycin sulphate MIC to test compound MIC for methicillin-resistant Staphylococcus aureus ATCC 43300; type: functional
Staphylococcus aureus [12] = assay: Antibiofilm activity against methicillin-resistant Staphylococcus aureus ATCC 43300 measured after overnight incubation by crystal violet-staining based assay; type: functional
Streptococcus mutans [13] = assay: Antibacterial activity against Streptococcus mutans ATCC 25175 assessed as reduction in acid production at 0.5 times MIC and MIC measured up to 24 hrs; type: functional, organism-based
Staphylococcus aureus [14] = assay: Potency index, ratio of cefixime MIC to test compound MIC for methicillin-resistant Staphylococcus aureus ATCC 43300; type: functional
Streptococcus mutans [15] = assay: Bacteriostatic activity against Streptococcus mutans ATCC 25175 assessed as log reduction in colony forming units at 12 to 16 ug/ml after 24 hrs; type: functional, organism-based
Staphylococcus aureus [16] = assay: Antibacterial activity against methicillin-resistant Staphylococcus aureus ATCC 43300 assessed as log reduction in bacterial count at 8 ug/ml measured after 24 hrs; type: functional
Streptococcus mutans [17] = assay: Antibiofilm activity against Streptococcus mutans ATCC 25175 assessed as formation of broken chains at MBIC concentration by uranyl acetate-staining based electron microscopy; type: functional, organism-based
Staphylococcus aureus [18] = assay: Antibiofilm activity against methicillin-resistant Staphylococcus aureus ATCC 43300 assessed as formation of broken chains at MBIC concentration by uranyl acetate-staining based electron microscopy; type: functional, organism-based
Streptococcus mutans [19] = assay: Antibacterial activity against Streptococcus mutans ATCC 25175 assessed as log reduction in bacterial count at 10 ug/ml measured after 24 hrs relative to control; type: functional
Streptococcus mutans [20] = assay: Antibiofilm activity against Streptococcus mutans ATCC 25175 measured after overnight incubation by crystal violet-staining based assay; type: functional
Staphylococcus aureus [21] = assay: Antibiofilm activity against methicillin-resistant Staphylococcus aureus ATCC 43300 assessed as formation of oviod cells at MBIC concentration by uranyl acetate-staining based electron microscopy; type: functional, organism-based
Staphylococcus aureus [22] = assay: Potency index, ratio of 6 amino penicillinic acid MIC to test compound MIC for methicillin-resistant Staphylococcus aureus ATCC 43300; type: functional
Streptococcus mutans [23] = assay: Bactericidal activity against Streptococcus mutans ATCC 25175 measured after overnight incubation; type: functional
Staphylococcus aureus [24] = assay: Antibacterial activity against methicillin-resistant Staphylococcus aureus ATCC 43300 assessed as inhibition of colony formation at 4 to 16 ug/ml measured after 24 hrs; type: functional, organism-based
Staphylococcus aureus [25] = assay: Antibacterial activity against methicillin-resistant Staphylococcus aureus ATCC 43300 assessed as delay in bacterial growth at 2 times MIC after 10 mins; type: functional, organism-based
Streptococcus mutans [26] = assay: Antibacterial activity against Streptococcus mutans ATCC 25175 measured assessed as reduction in bacterial viability at 5 to 20 ug/ml after 24 hrs by MTT assay; type: functional
Streptococcus mutans [27] = assay: Antibacterial activity against Streptococcus mutans ATCC 25175 assessed as time delay in bacterial growth at MIC, 2 times MIC and 4 times MIC; type: functional
Streptococcus mutans [28] = assay: Antibiofilm activity against Streptococcus mutans ATCC 25175 assessed as down-regulation of gtfB gene expression by semi-quantitative PCR analysis; type: functional, organism-based
Staphylococcus aureus [29] = assay: Antibacterial activity against methicillin-resistant Staphylococcus aureus ATCC 43300 assessed as reduction in bacterial viability at 4 to 16 ug/ml measured after 24 hrs by MTT assay; type: functional
Klebsiella pneumoniae [30] = assay: Antibacterial activity against Klebsiella pneumoniae ATCC 13882 measured after overnight incubation by two-fold serial dilution method; type: functional
Staphylococcus aureus [31] = assay: Antibiofilm activity against methicillin-resistant Staphylococcus aureus ATCC 43300 assessed as disruption of biofilm at 10 to 12 ug/ml by fluorescence microscopy; type: functional, organism-based
Staphylococcus aureus [32] = assay: Antibacterial activity against methicillin-resistant Staphylococcus aureus ATCC 43300 assessed as delay in bacterial growth at MIC after 10 mins; type: functional, organism-based
Streptococcus mutans [33] = assay: Antibiofilm activity against Streptococcus mutans ATCC 25175 assessed as formation of oviod cells at MBIC concentration by uranyl acetate-staining based electron microscopy; type: functional, organism-based
Staphylococcus aureus [34] = assay: Antibiofilm activity against methicillin-resistant Staphylococcus aureus ATCC 43300 assessed as down-regulation of IcaA gene expression by semi-quantitative PCR analysis; type: functional, organism-based
Streptococcus mutans [35] = assay: Antibiofilm activity against Streptococcus mutans ATCC 25175 assessed as disruption of biofilm at 10 to 12 ug/ml by fluorescence microscopy; type: functional, organism-based
Streptococcus mutans [36] = assay: Antibiofilm activity against Streptococcus mutans ATCC 25175 assessed as down-regulation of luxS gene expression by semi-quantitative PCR analysis; type: functional, organism-based
Klebsiella pneumoniae [37] = assay: Antibiofilm activity against Klebsiella pneumoniae ATCC 13882 measured after overnight incubation by crystal violet-staining based assay; type: functional
Proteus mirabilis [38] = assay: Antibacterial activity against Proteus mirabilis ATCC 12453 measured after overnight incubation by two-fold serial dilution method; type: functional
Proteus mirabilis [39] = assay: Antibiofilm activity against Proteus mirabilis ATCC 12453 measured after overnight incubation by crystal violet-staining based assay; type: functional
Klebsiella pneumoniae [40] = assay: Antibiofilm activity against Klebsiella pneumoniae ATCC 13882 at >= 50 ug/ml measured after overnight incubation by crystal violet-staining based assay; type: functional, organism-based
Proteus mirabilis [41] = assay: Antibiofilm activity against Proteus mirabilis ATCC 12453 at >= 50 ug/ml measured after overnight incubation by crystal violet-staining based assay; type: functional, organism-based

## CC1=CCC[C@@H]2[C@@](C)(CC/C(C=O)=C\C(=O)O)[C@H](C)CC[C@@]12C
Streptococcus mutans [1]
  MIC: 20 µg/mL (≈ 62.8 µM)
Staphylococcus aureus [2]
  Activity: Active
Staphylococcus aureus [3]
  Activity: Active
Staphylococcus aureus [4]
  Activity: Active
Streptococcus mutans [5]
  Ratio: 5
Staphylococcus aureus [6]
  MBC: 95 µg/mL (≈ 298 µM)
Staphylococcus aureus [7]
  MIC: 16 µg/mL (≈ 50.2 µM)
Streptococcus mutans [8]
  Activity: Active
Streptococcus mutans [9]
  Activity: Active
Streptococcus mutans [10]
  Ratio: 5
Staphylococcus aureus [11]
  Ratio: 5
Staphylococcus aureus [12]
  Activity: 94.26%
  MBIC: 16 µg/mL
Streptococcus mutans [13]
  Activity: Active
Staphylococcus aureus [14]
  Ratio: 5
Streptococcus mutans [15]
  Activity: Active
Staphylococcus aureus [16]
  Activity: 9 log10CFU/ml
Streptococcus mutans [17]
  Activity: Active
Staphylococcus aureus [18]
  Activity: Active
Streptococcus mutans [19]
  Activity: 7.5 - 8 log10CFU/ml
Streptococcus mutans [20]
  Activity: 92.06%
  MBIC: 20 µg/mL
Staphylococcus aureus [21]
  Activity: Active
Staphylococcus aureus [22]
  Ratio: 5
Streptococcus mutans [23]
  MBC: 185 µg/mL (≈ 581 µM)
Staphylococcus aureus [24]
  Activity: Active
Staphylococcus aureus [25]
  Activity: Active
Streptococcus mutans [26]
  Activity: <=90%
Streptococcus mutans [27]
  Time: >=8 hr
Streptococcus mutans [28]
  Activity: Active
Staphylococcus aureus [29]
  Activity: <=90%
Klebsiella pneumoniae [30]
  MIC: inactive
Staphylococcus aureus [31]
  Activity: Active
Staphylococcus aureus [32]
  Activity: Active
Streptococcus mutans [33]
  Activity: Active
Staphylococcus aureus [34]
  Activity: Active
Streptococcus mutans [35]
  Activity: Active
Streptococcus mutans [36]
  Activity: Active

## CN[C@@H]1[C@@H](O)[C@@H](O[C@@H]2[C@@H](O)[C@H](O[C@H]3O[C@H](CN)CC[C@H]3N)[C@@H](N)C[C@H]2N)OC[C@]1(C)O.O=S(=O)(O)O
Streptococcus mutans [1]
  MIC: 10 µg/mL
Klebsiella pneumoniae [37]
  Activity: 89.92%
  MBIC: 3 µg/mL
Staphylococcus aureus [7]
  MIC: 135 µg/mL
Staphylococcus aureus [12]
  Activity: 90.8%
  MBIC: 150 µg/mL
Proteus mirabilis [38]
  MIC: 6.25 µg/mL
Streptococcus mutans [20]
  Activity: 76.42%
  MBIC: 10 µg/mL
Klebsiella pneumoniae [30]
  MIC: 3 µg/mL
Proteus mirabilis [39]
  Activity: 89.22%
  MBIC: 6.25 µg/mL

## CC1(C)S[C@@H]2[C@H](N)C(=O)N2[C@H]1C(=O)O
Streptococcus mutans [1]
  MIC: 70 µg/mL (≈ 324 µM)
Klebsiella pneumoniae [37]
  Activity: 68.9%
  MBIC: 35 µg/mL
Staphylococcus aureus [7]
  MIC: 135 µg/mL (≈ 624 µM)
Staphylococcus aureus [12]
  Activity: 60.46%
  MBIC: 150 µg/mL
Proteus mirabilis [38]
  MIC: 35 µg/mL (≈ 162 µM)
Streptococcus mutans [20]
  Activity: 29.31%
  MBIC: 7 µg/mL
Klebsiella pneumoniae [30]
  MIC: 35 µg/mL (≈ 162 µM)
Proteus mirabilis [39]
  Activity: 89.2%
  MBIC: 35 µg/mL

## CC1=CCC[C@@H]2[C@@](C)(CC/C(C)=C/C(=O)O)[C@H](C)CC[C@@]12C
Streptococcus mutans [1]
  MIC: inactive

## CC1=CCC[C@@H]2[C@@](C)(CCC3=CC(=O)OC3Nc3cccc(F)c3)[C@H](C)CC[C@@]12C (mixture of isomers)
Streptococcus mutans [1]
  MIC: 60 µg/mL
Staphylococcus aureus [7]
  MIC: 60 µg/mL
Staphylococcus aureus [12]
  Activity: 83.12%
Proteus mirabilis [38]
  MIC: 125 µg/mL
Streptococcus mutans [20]
  Activity: 73.17%
  MBIC: 55 µg/mL
Klebsiella pneumoniae [30]
  MIC: inactive
Klebsiella pneumoniae [40]
  Activity: Active
Proteus mirabilis [39]
  Activity: 68.75%
  MBIC: 110 µg/mL
Proteus mirabilis [41]
  Activity: Active
